Experimental findings from patent publication US20070249620A1, “Urea Derivative” (priority 2004, published 2007) are described below.

One series has as its target T1, mouse DGAT1 (Mus musculus, UniProt Q9Z2A7).
T1 construct: made in house; host or cells: insect cells (High Five, Sf9, Sf21, etc.), baculovirus expression system (Invitrogen)
T1 sequence (Q9Z2A7 1-498): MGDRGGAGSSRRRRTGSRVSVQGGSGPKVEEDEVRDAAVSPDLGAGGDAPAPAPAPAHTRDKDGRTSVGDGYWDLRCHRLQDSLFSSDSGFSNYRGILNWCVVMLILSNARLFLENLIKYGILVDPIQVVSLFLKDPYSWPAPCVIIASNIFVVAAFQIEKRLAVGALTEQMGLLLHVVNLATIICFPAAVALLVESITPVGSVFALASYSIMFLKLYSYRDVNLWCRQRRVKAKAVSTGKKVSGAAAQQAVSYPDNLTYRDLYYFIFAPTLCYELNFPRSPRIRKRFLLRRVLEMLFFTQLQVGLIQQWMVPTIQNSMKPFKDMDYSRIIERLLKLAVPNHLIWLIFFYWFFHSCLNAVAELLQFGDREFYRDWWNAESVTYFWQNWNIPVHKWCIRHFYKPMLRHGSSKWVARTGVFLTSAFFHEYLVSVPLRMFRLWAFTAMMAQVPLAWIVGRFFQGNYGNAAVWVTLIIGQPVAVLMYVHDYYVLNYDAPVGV
Kind of series: DGAT1 inhibitory effect test (microsome fraction, [14C]-oleoyl-CoA, triglyceride radioactivity by TLC). Format: biochemical. Conditions: 0.5 h; concentration of the test compound 0.1 μg/ml; mouse DGAT1 microsomes, 23° C., 30 minutes; read-out: Inhibitory ratio. The gist of the method:
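Inhibition was scored from radiolabelled triglyceride separated by TLC, relative to vehicle and net of a 0-min background. The reaction ran for 30 min at room temperature (23 °C) in Tris-HCl pH 8.0 with MgCl2, BSA and Triton X-100. Substrates were 30 μM [14C]-oleoyl-CoA and 0.5 mM dioleoylglycerol, with mouse DGAT1 microsomes from baculovirus-infected insect cells as enzyme.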

Each structure is given as a SMILES string.

The term melting point denotes the temperature of the solid-liquid transition. In turn, `COc1ccccc1NC(=O)Nc1ccc(N2CCN(C(=O)Nc3ccc(OCCO)cc3Cl)CC2)c(Cl)c1` [Example 269, 4-{2-chloro-4-[3-(2-methoxy-phenyl)-ureido]-phenyl}-piperazine-1-carboxylic acid [2-chloro-4-(2-hydroxy-ethoxy)-phenyl]-amide] had a melting point of 173 to 175 °C. Also, at mouse DGAT1, the inhibition at 0.1 µg/mL was at least 50%.

As to `COc1cccnc1NC(=O)Nc1ccc(N2CCN(C(=O)Nc3ccc(OCCO)cc3Cl)CC2)cc1` [Example 270, 4-{4-[3-(3-methoxy-pyridin-2-yl)-ureido]-phenyl}-piperazine-1-carboxylic acid [2-chloro-4-(2-hydroxy-ethoxy)-phenyl]-amide], the melting point lay in the range of 215 to 216 °C. Moreover, on mouse DGAT1, the inhibition at 0.1 µg/mL is at least 50%.

As for `Cc1nc(NC(=O)Nc2ccc(N3CCN(C(=O)Nc4ccc(OCCO)cc4Cl)CC3)nc2)sc1C` [Example 271, 4-{5-[3-(4,5-dimethyl-thiazol-2-yl)-ureido]-pyridin-2-yl}-piperazine-1-carboxylic acid [2-chloro-4-(2-hydroxy-ethoxy)-phenyl]-amide], the melting point lay within 184 to 185 °C. The inhibition at 0.1 µg/mL at mouse DGAT1 was at least 50%.

`Cc1nc(NC(=O)Nc2ccc(N3CCN(C(=O)Nc4ccc(OCCO)cc4Cl)CC3)cc2)sc1C` [Example 272, 4-{4-[3-(4,5-dimethyl-thiazol-2-yl)-ureido]-phenyl}-piperazine-1-carboxylic acid [2-chloro-4-(2-hydroxy-ethoxy)-phenyl]-amide] showed a melting point of 186 to 187 °C. Moreover, the inhibition at 0.1 µg/mL on mouse DGAT1 was at least 50%.

The molecule `COc1ccc(C)cc1NC(=O)Nc1ccc(C2=CCN(C(=O)Nc3cc(OCCO)ccc3Cl)CC2)cc1` [Example 273, 4-{4-[3-(2-methoxy-5-methyl-phenyl)-ureido]-phenyl}-3,6-dihydro-2H-pyridine-1-carboxylic acid [2-chloro-5-(2-hydroxy-ethoxy)-phenyl]-amide] showed a melting point of 139 to 142 °C. In addition, the inhibition at 0.1 µg/mL at mouse DGAT1 is at least 50%.

The molecule `COc1ccc(C)cc1NC(=O)Nc1ccc(C2CCN(C(=O)Nc3cc(OCCO)ccc3Cl)CC2)cc1` [Example 274, 4-{4-[3-(2-methoxy-5-methyl-phenyl)-ureido]-phenyl}-piperidine-1-carboxylic acid [2-chloro-5-(2-hydroxy-ethoxy)-phenyl]-amide] came in with a melting point of 202 to 205 °C. Besides, the inhibition at 0.1 µg/mL at mouse DGAT1 was at least 50%.

Take `COc1ccc(C)cc1NC(=O)Nc1ccc(N2CCN(C(=O)Nc3ccc(OCC(O)CO)cc3C(F)(F)F)CC2)cc1` (stereo not drawn) [Example 275, 4-{4-[3-(2-methoxy-5-methyl-phenyl)-ureido]-phenyl}-piperazine-1-carboxylic acid [4-(2,3-dihydroxy-propoxy)-2-trifluoromethyl-phenyl]-amide]: the melting point was in the range of 187 to 190 °C. The inhibition at 0.1 µg/mL at mouse DGAT1 was at least 50%.

On to `COc1ccc(C)cc1NC(=O)Nc1ccc(N2CCN(C(=O)Nc3ccc(OCC(O)CO)cc3C)CC2)cc1` (stereo not drawn) [Example 276, 4-{4-[3-(2-methoxy-5-methyl-phenyl)-ureido]-phenyl}-piperazine-1-carboxylic acid [4-(2,3-dihydroxy-propoxy)-2-methyl-phenyl]-amide], for which the melting point was 148 to 150 °C. Further, the inhibition at 0.1 µg/mL at mouse DGAT1 is at least 50%.

The molecule `COc1ccc(C)cc1NC(=O)Nc1ccc(N2CCN(C(=O)Nc3ccc(OCC(O)CO)cc3Cl)CC2)cc1` (stereo not drawn) [Example 277, 4-{4-[3-(2-methoxy-5-methyl-phenyl)-ureido]-phenyl}-piperazine-1-carboxylic acid [2-chloro-4-(2,3-dihydroxy-propoxy)-phenyl]-amide] registered a melting point of 134 to 136 °C. Also, the inhibition at 0.1 µg/mL at mouse DGAT1 was at least 50%.

With `O=C(Nc1ccc(N2CCN(C(=O)Nc3ccc(OCC(O)CO)cc3Cl)CC2)cc1)Nc1ccccc1F` (stereo not drawn) [Example 278, 4-{4-[3-(2-fluoro-phenyl)-ureido]-phenyl}-piperazine-1-carboxylic acid [2-chloro-4-(2,3-dihydroxy-propoxy)-phenyl]-amide], the melting point fell in the range of 189 to 190 °C. For the same molecule, the inhibition at 0.1 µg/mL on mouse DGAT1 is at least 50%.

Molecule `COc1ccc(F)cc1NC(=O)Nc1ccc(N2CCN(C(=O)Nc3ccc(OCC(O)CO)cc3C(F)(F)F)CC2)nc1` (stereo not drawn) [Example 279, 4-{5-[3-(5-fluoro-2-methoxy-phenyl)-ureido]-pyridin-2-yl}-piperazine-1-carboxylic acid [4-(2,3-dihydroxy-propoxy)-2-trifluoromethyl-phenyl]-amide] came in with a melting point of 195 °C. Also, the inhibition at 0.1 µg/mL at mouse DGAT1 is at least 50%.

As for `COc1ccc(C)cc1NC(=O)Nc1ccc2c(c1)CCN(C(=O)Nc1ccc(OCC(O)CO)cc1Cl)C2` (stereo not drawn) [Example 280, 6-[3-(2-methoxy-5-methyl-phenyl)-ureido]-3,4-dihydro-1H-isoquinoline-2-carboxylic acid [2-chloro-4-(2,3-dihydroxy-propoxy)-phenyl]-amide], the melting point was in the range of 119 to 121 °C. Moreover, the inhibition at 0.1 µg/mL at mouse DGAT1 was at least 50%.

In turn, `COc1ccc(C)cc1NC(=O)Nc1ccc(C2=CCN(C(=O)Nc3ccc(OCC(O)CO)cc3Cl)CC2)cc1` (stereo not drawn) [Example 281, 4-{4-[3-(2-methoxy-5-methyl-phenyl)-ureido]-phenyl}-3,6-dihydro-2H-pyridine-1-carboxylic acid [2-chloro-4-(2,3-dihydroxy-propoxy)-phenyl]-amide] came in with a melting point of 125 to 128 °C. In addition, the inhibition at 0.1 µg/mL on mouse DGAT1 is at least 50%.

As for `COc1ccc(C)cc1NC(=O)Nc1ccc(C2=CCN(C(=O)Nc3ccc(OCC(O)CO)cc3C(F)(F)F)CC2)cc1` (stereo not drawn) [Example 282, 4-{4-[3-(2-methoxy-5-methyl-phenyl)-ureido]-phenyl}-3,6-dihydro-2H-pyridine-1-carboxylic acid [4-(2,3-dihydroxy-propoxy)-2-trifluoromethyl-phenyl]-amide], the melting point fell in the range of 135 to 137 °C. The inhibition at 0.1 µg/mL at mouse DGAT1 was at least 50%.

The molecule `COc1ccc(C)cc1NC(=O)Nc1ccc(C2CCN(C(=O)Nc3ccc(OCC(O)CO)cc3Cl)CC2)cc1` (stereo not drawn) [Example 283, 4-{4-[3-(2-methoxy-5-methyl-phenyl)-ureido]-phenyl}-piperidine-1-carboxylic acid [2-chloro-4-(2,3-dihydroxy-propoxy)-phenyl]-amide] had a melting point of 179 to 181 °C. The inhibition at 0.1 µg/mL at mouse DGAT1 is at least 50%.

For the molecule `COc1ccccc1NC(=O)Nc1ccc2c(c1)CCN(C(=O)Nc1ccc(OCC(O)CO)cc1Cl)C2` (stereo not drawn) [Example 284, 6-[3-(2-methoxy-phenyl)-ureido]-3,4-dihydro-1H-isoquinoline-2-carboxylic acid [2-chloro-4-(2,3-dihydroxy-propoxy)-phenyl]-amide], the melting point is 107 to 111 °C. The inhibition at 0.1 µg/mL on mouse DGAT1 was at least 50%.

On to `COc1cc(NC(=O)Nc2ccc3c(c2)CCN(C(=O)Nc2ccc(OCC(O)CO)cc2Cl)C3)cc(OC)c1` (stereo not drawn) [Example 285, 6-[3-(3,5-dimethoxy-phenyl)-ureido]-3,4-dihydro-1H-isoquinoline-2-carboxylic acid [2-chloro-4-(2,3-dihydroxy-propoxy)-phenyl]-amide], for which the melting point was in the range of 108 to 110 °C. Moreover, the inhibition at 0.1 µg/mL at mouse DGAT1 was at least 50%.

In turn, `COc1ccccc1NC(=O)Nc1ccc(C2=CCN(C(=O)Nc3ccc(OCC(O)CO)cc3Cl)CC2)cc1` (stereo not drawn) [Example 286, 4-{4-[3-(2-methoxy-phenyl)-ureido]-phenyl}-3,6-dihydro-2H-pyridine-1-carboxylic acid [2-chloro-4-(2,3-dihydroxy-propoxy)-phenyl]-amide] returned a melting point of 103 to 107 °C. The inhibition at 0.1 µg/mL on mouse DGAT1 was at least 50%.

Molecule `COc1cc(NC(=O)Nc2ccc(C3=CCN(C(=O)Nc4ccc(OCC(O)CO)cc4Cl)CC3)cc2)cc(OC)c1` (stereo not drawn) [Example 287, 4-{4-[3-(3,5-dimethoxy-phenyl)-ureido]-phenyl}-3,6-dihydro-2H-pyridine-1-carboxylic acid [2-chloro-4-(2,3-dihydroxy-propoxy)-phenyl]-amide] showed a melting point of 108 to 111 °C. The inhibition at 0.1 µg/mL at mouse DGAT1 was at least 50%.

Turning to `COc1ccccc1NC(=O)Nc1ccc(C2CCN(C(=O)Nc3ccc(OCC(O)CO)cc3Cl)CC2)cc1` (stereo not drawn) [Example 288, 4-{4-[3-(2-methoxy-phenyl)-ureido]-phenyl}-piperidine-1-carboxylic acid [2-chloro-4-(2,3-dihydroxy-propoxy)-phenyl]-amide], the melting point lay within 158 to 161 °C. The inhibition at 0.1 µg/mL at mouse DGAT1 was at least 50%.

As for `COc1cc(NC(=O)Nc2ccc(C3CCN(C(=O)Nc4ccc(OCC(O)CO)cc4Cl)CC3)cc2)cc(OC)c1` (stereo not drawn) [Example 289, 4-{4-[3-(3,5-dimethoxy-phenyl)-ureido]-phenyl}-piperidine-1-carboxylic acid [2-chloro-4-(2,3-dihydroxy-propoxy)-phenyl]-amide], the melting point fell in the range of 105 to 108 °C. Also, the inhibition at 0.1 µg/mL on mouse DGAT1 is at least 50%.
